Measurements reported in patent US12281121B2, “N-containing heteroaryl derivative and pharmaceutical composition comprising same as active ingredient for prevention or treatment of cancer” (VORONOI Inc., priority 2019, dated 2025).

Experiments:
Assay in all cases: ScanMAX Kinase analysis panel (DiscoverX)
Assay type in all cases: binding
FLT3(N841I) = target: T1, FLT3(N841I) (Homo sapiens, UniProt P36888, N841I); settings: read-out: adjusted percentage (% control)
T1 construct: purchased DiscoverX ScanMAX Kinase analysis panel
Protocol: (§1) The following experiment was performed in order to evaluate the inhibitory activity of the compound according to the present invention against more enzymes. Specifically, for Examples 1 and 3 selected among the Example compounds of the present invention, the enzyme (kinase) selectivity was set to be measured by commissioning DiscoverX, and an experiment was conducted using a ScanMAX™ Kinase analysis panel. In this case, the concentration of the drug treated with the enzyme was set to 1 μM in DMSO, the adjusted percentage (% control) was determined in the same manner as in the following Equation 1, and the results are shown in the following Table 3. (Example compound−Positive control)/(Negative control−Positive control)×100 [Equation 1]
(§2) In addition, the enzyme selectivity of the present invention was determined to be active against the corresponding enzyme when the adjusted percentage was <35% (that is, less than 35%).

BLK = target: T2, BLK (Homo sapiens, UniProt P51451); settings: read-out: adjusted percentage (% control)
T2 construct: purchased DiscoverX
T2 sequence (P51451 whole entry): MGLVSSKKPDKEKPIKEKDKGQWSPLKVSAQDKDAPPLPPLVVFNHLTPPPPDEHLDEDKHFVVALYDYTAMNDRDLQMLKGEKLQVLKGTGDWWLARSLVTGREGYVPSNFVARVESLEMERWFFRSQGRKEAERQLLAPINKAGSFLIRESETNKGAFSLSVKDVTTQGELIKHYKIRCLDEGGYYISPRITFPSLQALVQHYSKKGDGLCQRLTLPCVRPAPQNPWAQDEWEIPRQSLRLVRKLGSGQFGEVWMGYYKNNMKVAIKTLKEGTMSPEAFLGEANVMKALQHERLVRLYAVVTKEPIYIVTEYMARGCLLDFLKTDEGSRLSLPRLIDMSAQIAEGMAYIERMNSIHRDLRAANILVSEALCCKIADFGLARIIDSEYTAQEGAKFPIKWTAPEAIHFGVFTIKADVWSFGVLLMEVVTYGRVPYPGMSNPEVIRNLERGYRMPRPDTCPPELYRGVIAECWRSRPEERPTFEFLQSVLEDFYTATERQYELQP
Protocol: as §1, §2

FLT3-autoinhibited = target: T3, FLT3-autoinhibited (Homo sapiens, UniProt P36888); settings: read-out: adjusted percentage (% control)
T3 construct: purchased DiscoverX ScanMAX Kinase analysis panel
Protocol: as §1, §2

KIT(D816V) = target: T4, KIT(D816V) (Homo sapiens, UniProt P10721, D816V); settings: read-out: adjusted percentage (% control)
T4 construct: purchased DiscoverX ScanMAX Kinase analysis panel
Protocol: as §1, §2

[1] = target: T5, JAK1(JH1domain-catalytic) (Homo sapiens, UniProt P23458); settings: read-out: adjusted percentage (% control)
T5 construct: JAK1(JH1domain-catalytic); purchased DiscoverX ScanMAX Kinase analysis panel
T5 sequence (P23458 875-1153 limits assumed): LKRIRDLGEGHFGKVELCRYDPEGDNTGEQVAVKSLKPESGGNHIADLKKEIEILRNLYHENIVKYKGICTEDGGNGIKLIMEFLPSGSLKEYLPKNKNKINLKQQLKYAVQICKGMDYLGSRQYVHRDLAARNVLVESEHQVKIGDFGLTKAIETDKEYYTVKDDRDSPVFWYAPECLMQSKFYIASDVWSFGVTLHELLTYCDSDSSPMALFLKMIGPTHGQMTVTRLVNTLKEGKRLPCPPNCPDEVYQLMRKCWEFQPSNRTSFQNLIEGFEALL
Protocol: as §1, §2

EPHB6 = target: T6, EPHB6 (Homo sapiens, UniProt O15197); settings: read-out: adjusted percentage (% control)
T6 construct: purchased DiscoverX ScanMAX Kinase analysis panel
Protocol: as §1, §2

FRK = target: T7, FRK (Homo sapiens, UniProt P42685); settings: read-out: adjusted percentage (% control)
T7 construct: purchased DiscoverX ScanMAX Kinase analysis panel
Protocol: as §1, §2

ICK = target: T8, ICK (Homo sapiens, UniProt Q9UPZ9); settings: read-out: adjusted percentage (% control)
T8 construct: purchased DiscoverX ScanMAX Kinase analysis panel
Protocol: as §1, §2

FLT3(ITD, D835V) = settings: 1 μM
Protocol: as §1, §2

FGR = target: T9, FGR (Homo sapiens, UniProt P09769); settings: read-out: adjusted percentage (% control)
T9 construct: purchased DiscoverX ScanMAX Kinase analysis panel
T9 sequence (P09769 whole entry): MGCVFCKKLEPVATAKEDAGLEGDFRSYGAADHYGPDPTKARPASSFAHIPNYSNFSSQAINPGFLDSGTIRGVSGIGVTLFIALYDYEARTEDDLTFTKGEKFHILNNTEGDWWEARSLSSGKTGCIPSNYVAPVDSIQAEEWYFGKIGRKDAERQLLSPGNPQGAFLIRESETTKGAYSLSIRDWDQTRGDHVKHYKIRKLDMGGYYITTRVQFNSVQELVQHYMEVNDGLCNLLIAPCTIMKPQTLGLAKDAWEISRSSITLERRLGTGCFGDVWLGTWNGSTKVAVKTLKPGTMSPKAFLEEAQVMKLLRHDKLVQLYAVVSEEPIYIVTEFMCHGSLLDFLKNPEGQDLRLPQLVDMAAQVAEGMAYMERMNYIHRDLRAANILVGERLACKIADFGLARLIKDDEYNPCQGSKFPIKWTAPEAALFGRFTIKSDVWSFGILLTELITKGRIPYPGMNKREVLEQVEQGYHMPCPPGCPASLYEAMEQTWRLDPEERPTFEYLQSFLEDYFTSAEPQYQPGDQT
Protocol: as §1, §2

MEK3 = target: T10, MEK3 (Homo sapiens, UniProt P46734); settings: read-out: adjusted percentage (% control)
T10 construct: purchased DiscoverX ScanMAX Kinase analysis panel
Protocol: as §1, §2

[2] = target: T11, JAK2(JH1domain-catalytic) (Homo sapiens, UniProt O60674); settings: read-out: adjusted percentage (% control)
T11 construct: JAK2(JH1domain-catalytic); purchased DiscoverX ScanMAX Kinase analysis panel
Protocol: as §1, §2

CSNK2A2 = target: T12, CSNK2A2 (Homo sapiens, UniProt P19784); settings: read-out: adjusted percentage (% control)
T12 construct: purchased DiscoverX
Protocol: as §1, §2

DAPK3 = target: T13, DAPK3 (Homo sapiens, UniProt O43293); settings: read-out: adjusted percentage (% control)
T13 construct: purchased DiscoverX
Protocol: as §1, §2

[3] = target: T14, JAK3(JH1domain-catalytic) (Homo sapiens, UniProt P52333); settings: read-out: adjusted percentage (% control)
T14 construct: JAK3 (JH1domain-catalytic); purchased DiscoverX ScanMAX Kinase analysis panel
Protocol: as §1, §2

EGFR(T790M) = target: T15, EGFR(T790M) (Homo sapiens, UniProt P00533, T790M); settings: read-out: adjusted percentage (% control)
T15 construct: purchased DiscoverX ScanMAX Kinase analysis panel
Protocol: as §1, §2

EGFR(L858R, T790M) = target: T16, EGFR(L858R, T790M) (Homo sapiens, UniProt P00533, L858R/T790M); settings: read-out: adjusted percentage (% control)
T16 construct: purchased DiscoverX
Protocol: as §1, §2

[4] = target: T17, TYK2(JH1domain-catalytic) (Homo sapiens, UniProt P29597); settings: read-out: adjusted percentage (% control)
T17 construct: TYK2(JH1domain-catalytic); purchased DiscoverX ScanMAX Kinase analysis panel
Protocol: as §1, §2

FLT3(ITD) = settings: 1 μM
Protocol: as §1, §2

CSNK2A1 = target: T18, CSNK2A1 (Homo sapiens, UniProt P68400); settings: read-out: adjusted percentage (% control)
T18 construct: purchased DiscoverX
T18 sequence (P68400 whole entry): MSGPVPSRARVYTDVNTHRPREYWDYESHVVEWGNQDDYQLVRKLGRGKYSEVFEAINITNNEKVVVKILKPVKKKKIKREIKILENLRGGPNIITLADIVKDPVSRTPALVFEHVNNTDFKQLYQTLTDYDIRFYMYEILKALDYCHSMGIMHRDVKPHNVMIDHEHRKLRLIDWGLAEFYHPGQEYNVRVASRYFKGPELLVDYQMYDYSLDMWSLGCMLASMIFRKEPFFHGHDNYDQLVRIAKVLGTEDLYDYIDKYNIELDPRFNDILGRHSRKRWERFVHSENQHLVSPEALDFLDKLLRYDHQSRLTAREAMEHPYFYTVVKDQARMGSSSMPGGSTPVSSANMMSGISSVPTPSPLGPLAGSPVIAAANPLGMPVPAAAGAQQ
Protocol: as §1, §2

AURKC = target: T19, AURKC (Homo sapiens, UniProt Q9UQB9); settings: read-out: adjusted percentage (% control)
T19 construct: purchased DiscoverX
Protocol: as §1, §2

SRC = target: T20, SRC (Homo sapiens, UniProt P12931); settings: read-out: adjusted percentage (% control)
T20 construct: purchased DiscoverX ScanMAX Kinase analysis panel
T20 sequence (P12931 whole entry): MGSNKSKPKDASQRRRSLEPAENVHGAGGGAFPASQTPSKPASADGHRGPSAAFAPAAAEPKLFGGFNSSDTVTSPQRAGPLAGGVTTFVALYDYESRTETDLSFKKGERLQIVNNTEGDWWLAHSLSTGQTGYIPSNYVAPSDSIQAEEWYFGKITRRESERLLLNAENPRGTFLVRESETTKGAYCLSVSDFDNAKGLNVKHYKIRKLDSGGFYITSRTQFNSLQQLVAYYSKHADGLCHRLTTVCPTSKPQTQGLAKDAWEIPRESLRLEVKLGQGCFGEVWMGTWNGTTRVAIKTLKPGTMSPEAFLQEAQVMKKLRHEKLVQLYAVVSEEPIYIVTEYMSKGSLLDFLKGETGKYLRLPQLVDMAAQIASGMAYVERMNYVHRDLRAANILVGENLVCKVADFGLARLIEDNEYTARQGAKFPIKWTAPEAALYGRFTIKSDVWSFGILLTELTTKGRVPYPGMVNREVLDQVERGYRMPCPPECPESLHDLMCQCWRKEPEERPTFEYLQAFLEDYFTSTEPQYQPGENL
Protocol: as §1, §2

BTK = target: T21, BTK (Homo sapiens, UniProt Q06187); settings: read-out: adjusted percentage (% control)
T21 construct: purchased DiscoverX
Protocol: as §1, §2

YES = target: T22, YES (Homo sapiens, UniProt P07947); settings: read-out: adjusted percentage (% control)
T22 construct: purchased DiscoverX ScanMAX Kinase analysis panel
Protocol: as §1, §2

RET = target: T23, RET (Homo sapiens, UniProt P07949); settings: read-out: adjusted percentage (% control)
T23 construct: purchased DiscoverX ScanMAX Kinase analysis panel
T23 sequence (P07949 29-1114): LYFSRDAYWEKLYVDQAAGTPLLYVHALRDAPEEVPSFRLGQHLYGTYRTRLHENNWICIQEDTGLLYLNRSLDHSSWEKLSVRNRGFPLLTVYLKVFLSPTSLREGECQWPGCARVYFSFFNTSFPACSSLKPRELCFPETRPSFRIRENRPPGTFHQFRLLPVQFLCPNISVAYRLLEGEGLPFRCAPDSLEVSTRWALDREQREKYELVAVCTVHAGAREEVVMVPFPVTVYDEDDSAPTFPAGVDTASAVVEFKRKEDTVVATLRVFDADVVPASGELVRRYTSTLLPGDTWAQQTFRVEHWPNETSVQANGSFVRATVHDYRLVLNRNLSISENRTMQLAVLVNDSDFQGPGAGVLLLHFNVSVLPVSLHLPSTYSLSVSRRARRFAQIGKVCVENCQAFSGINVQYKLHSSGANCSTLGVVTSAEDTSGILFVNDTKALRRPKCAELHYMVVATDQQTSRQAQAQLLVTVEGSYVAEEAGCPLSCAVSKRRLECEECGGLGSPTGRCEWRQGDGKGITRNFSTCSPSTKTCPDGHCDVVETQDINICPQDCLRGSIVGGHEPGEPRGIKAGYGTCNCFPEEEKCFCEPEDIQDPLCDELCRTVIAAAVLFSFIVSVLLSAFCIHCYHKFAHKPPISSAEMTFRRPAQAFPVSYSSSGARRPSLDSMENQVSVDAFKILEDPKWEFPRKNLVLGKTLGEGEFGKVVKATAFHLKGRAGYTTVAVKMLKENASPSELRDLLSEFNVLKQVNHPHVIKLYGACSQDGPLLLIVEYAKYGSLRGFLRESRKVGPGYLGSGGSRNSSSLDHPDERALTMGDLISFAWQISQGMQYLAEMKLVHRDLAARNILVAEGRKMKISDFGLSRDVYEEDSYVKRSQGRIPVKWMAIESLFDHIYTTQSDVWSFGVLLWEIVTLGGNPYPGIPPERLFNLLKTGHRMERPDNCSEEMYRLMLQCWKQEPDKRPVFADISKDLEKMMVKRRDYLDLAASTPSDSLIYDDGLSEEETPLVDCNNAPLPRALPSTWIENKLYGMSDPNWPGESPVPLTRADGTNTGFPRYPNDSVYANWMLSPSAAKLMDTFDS
Protocol: as §1, §2

FLT3(K663Q) = target: T24, FLT3(K663Q) (Homo sapiens, UniProt P36888, K663Q); settings: read-out: adjusted percentage (% control)
T24 construct: purchased DiscoverX ScanMAX Kinase analysis panel
Protocol: as §1, §2

GCN2(Kin.Dom.2, S808G) = target: T25, GCN2(Kin.Dom.2, S808G) (Homo sapiens, UniProt Q9P2K8, S808G); settings: read-out: adjusted percentage (% control)
T25 construct: GCN2(Kin.Dom.2,S808G); purchased DiscoverX ScanMAX Kinase analysis panel
T25 sequence (Q9P2K8 590-1001 S808G limits assumed): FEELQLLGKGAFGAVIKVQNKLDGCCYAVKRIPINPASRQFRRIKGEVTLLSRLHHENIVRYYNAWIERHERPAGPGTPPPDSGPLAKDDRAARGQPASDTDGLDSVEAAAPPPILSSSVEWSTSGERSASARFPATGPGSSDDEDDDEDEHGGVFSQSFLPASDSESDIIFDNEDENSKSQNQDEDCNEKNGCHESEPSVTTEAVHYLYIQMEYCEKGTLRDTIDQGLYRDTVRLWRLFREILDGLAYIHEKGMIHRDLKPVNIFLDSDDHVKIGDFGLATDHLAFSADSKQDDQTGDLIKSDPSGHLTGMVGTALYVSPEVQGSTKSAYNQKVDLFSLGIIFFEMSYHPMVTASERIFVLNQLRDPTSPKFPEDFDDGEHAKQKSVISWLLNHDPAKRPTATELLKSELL
Protocol: as §1, §2

MAP3K2 = target: T26, MAP3K2 (Homo sapiens, UniProt Q9Y2U5); settings: read-out: adjusted percentage (% control)
T26 construct: purchased DiscoverX ScanMAX Kinase analysis panel
T26 sequence (Q9Y2U5 whole entry): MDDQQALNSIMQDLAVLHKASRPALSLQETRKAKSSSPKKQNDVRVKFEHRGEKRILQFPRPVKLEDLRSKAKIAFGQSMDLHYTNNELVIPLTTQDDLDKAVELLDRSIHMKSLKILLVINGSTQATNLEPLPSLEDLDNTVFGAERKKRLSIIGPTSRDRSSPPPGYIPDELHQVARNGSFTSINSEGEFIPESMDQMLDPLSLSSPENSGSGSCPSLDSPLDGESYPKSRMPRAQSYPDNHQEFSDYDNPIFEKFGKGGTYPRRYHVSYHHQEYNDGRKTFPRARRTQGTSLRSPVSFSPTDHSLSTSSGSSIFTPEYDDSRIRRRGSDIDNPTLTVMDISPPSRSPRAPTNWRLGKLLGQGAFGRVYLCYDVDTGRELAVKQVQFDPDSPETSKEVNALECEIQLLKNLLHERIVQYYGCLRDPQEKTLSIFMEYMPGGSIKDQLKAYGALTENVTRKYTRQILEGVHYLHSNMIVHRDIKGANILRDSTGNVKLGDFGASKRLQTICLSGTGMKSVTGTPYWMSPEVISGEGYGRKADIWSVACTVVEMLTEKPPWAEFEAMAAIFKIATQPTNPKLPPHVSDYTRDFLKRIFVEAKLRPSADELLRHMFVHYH
Protocol: as §1, §2

RET(M918T) = target: T27, RET(M918T) (Homo sapiens, UniProt P07949, M918T); settings: read-out: adjusted percentage (% control)
T27 construct: purchased DiscoverX ScanMAX Kinase analysis panel
T27 sequence (P07949 29-1114 M918T): as the sequence (P07949 29-1114) above, with M890T counted along it
Protocol: as §1, §2

MERTK = target: T28, MERTK (Homo sapiens, UniProt Q12866); settings: read-out: adjusted percentage (% control)
T28 construct: purchased DiscoverX ScanMAX Kinase analysis panel
Protocol: as §1, §2

[5] = target: T29, JAK1(JH2domain-pseudokinase) (Homo sapiens, UniProt P23458); settings: read-out: adjusted percentage (% control)
T29 construct: JAK1(JH2domain-pseudokinase); purchased DiscoverX ScanMAX Kinase analysis panel
T29 sequence (P23458 583-855 limits assumed): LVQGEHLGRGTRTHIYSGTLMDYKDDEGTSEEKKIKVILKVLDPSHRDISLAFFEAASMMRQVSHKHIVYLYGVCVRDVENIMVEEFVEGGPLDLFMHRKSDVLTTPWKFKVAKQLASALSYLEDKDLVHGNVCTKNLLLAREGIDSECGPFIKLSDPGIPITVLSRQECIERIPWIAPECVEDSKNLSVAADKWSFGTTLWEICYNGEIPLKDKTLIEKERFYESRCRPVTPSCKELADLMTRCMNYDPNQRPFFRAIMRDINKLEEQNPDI
Protocol: as §1, §2

DDR2 = target: T30, DDR2 (Homo sapiens, UniProt Q16832); settings: read-out: adjusted percentage (% control)
T30 construct: purchased DiscoverX
Protocol: as §1, §2

DDR1 = target: T31, DDR1 (Homo sapiens, UniProt Q08345); settings: read-out: adjusted percentage (% control)
T31 construct: purchased DiscoverX
Protocol: as §1, §2

RET(V804M) = target: T32, RET(V804M) (Homo sapiens, UniProt P07949, V804M); settings: read-out: adjusted percentage (% control)
T32 construct: purchased DiscoverX ScanMAX Kinase analysis panel
T32 sequence (P07949 29-1114 V804M): as the sequence (P07949 29-1114) above, with V776M counted along it
Protocol: as §1, §2

MEK2 = target: T33, MEK2 (Homo sapiens, UniProt P36507); settings: read-out: adjusted percentage (% control)
T33 construct: purchased DiscoverX ScanMAX Kinase analysis panel
Protocol: as §1, §2

Row | SMILES | remaining binding at 1 µM (FLT3(N841I)) [%] | remaining binding at 1 µM (BLK) [%] | remaining binding at 1 µM (FLT3-autoinhibited) [%] | remaining binding at 1 µM (KIT(D816V)) [%] | remaining binding at 1 µM [1] [%] | remaining binding at 1 µM (EPHB6) [%] | remaining binding at 1 µM (FRK) [%] | remaining binding at 1 µM (ICK) [%] | adjusted percentage (% control) (FLT3(ITD, D835V)) [%] | remaining binding at 1 µM (FGR) [%] | remaining binding at 1 µM (MEK3) [%] | remaining binding at 1 µM [2] [%] | remaining binding at 1 µM (CSNK2A2) [%] | remaining binding at 1 µM (DAPK3) [%] | remaining binding at 1 µM [3] [%] | remaining binding at 1 µM (EGFR(T790M)) [%] | remaining binding at 1 µM (EGFR(L858R, T790M)) [%] | remaining binding at 1 µM [4] [%] | adjusted percentage (% control) (FLT3(ITD)) [%] | remaining binding at 1 µM (CSNK2A1) [%] | further results
1 | COc1ccc(CN2C3CC2CN(c2ccc(-c4nc(Nc5cc(C)[nH]n5)c5occc5n4)cn2)C3)cn1 [Example 1, 2-(6-(6-((6-methoxypyridin-3-yl)methyl)-3,6-diazabicyclo[3.1.1]heptan-3-yl)pyridin-3-yl)-N-(5-methyl-1H-pyrazol-3-yl)furo[3,2-d]pyrimidin-4-amine] | 0 | 1.4 | 9.8 | 32 | 15 | 2.6 | 18 | 33 | 0 | 12 | 27 | 0.1 | 0 | 19 | 0.55 | 8.1 | 6.9 | 0.2 | 4.9 | 2.4 | remaining binding at 1 µM (AURKC): 15%; remaining binding at 1 µM (SRC): 0.7%; remaining binding at 1 µM (BTK): 17%; remaining binding at 1 µM (YES): 11%; remaining binding at 1 µM (RET): 0%; remaining binding at 1 µM (FLT3(K663Q)): 2.2%; remaining binding at 1 µM (GCN2(Kin.Dom.2, S808G)): 8%; remaining binding at 1 µM (MAP3K2): 27%; remaining binding at 1 µM (RET(M918T)): 0.9%; remaining binding at 1 µM (MERTK): 34%; remaining binding at 1 µM [5]: 21%; remaining binding at 1 µM (DDR2): 16%; remaining binding at 1 µM (DDR1): 25%; remaining binding at 1 µM (RET(V804M)): 0%; remaining binding at 1 µM (MEK2): 24%
2 | COc1ccc(CN2C3CC2CN(c2ccc(-c4nc(Nc5cc(C)[nH]n5)c5ccccc5n4)cn2)C3)cn1 [Example 3, 2-(6-(6-((6-methoxypyridin-3-yl)methyl)-3,6-diazabicyclo [3.1.1]heptan-3-yl)pyridin-3-yl)-N-(5-methyl-1H-pyrazol-3-yl)quinazolin-4-amine] | 0 | 0.05 | 11 | 6.5 | 9.7 | 4.8 | 34 | 28 | 0 | 8.4 | 4.9 | 0 | 0.3 | 34 | 1.9 | 16 | 6.6 | 5.3 | 1.2 | 1.5 | remaining binding at 1 µM (AURKC): 21%; remaining binding at 1 µM (SRC): 0%; remaining binding at 1 µM (BTK): 16%; remaining binding at 1 µM (YES): 3.8%; remaining binding at 1 µM (RET): 0%; remaining binding at 1 µM (FLT3(K663Q)): 0.1%; remaining binding at 1 µM (GCN2(Kin.Dom.2, S808G)): 0.2%; remaining binding at 1 µM (MAP3K2): 7.4%; remaining binding at 1 µM (RET(M918T)): 0.25%; remaining binding at 1 µM (MERTK): 6.2%; remaining binding at 1 µM [5]: 2.9%; remaining binding at 1 µM (DDR2): 30%; remaining binding at 1 µM (DDR1): 12%; remaining binding at 1 µM (RET(V804M)): 0%; remaining binding at 1 µM (MEK2): 17%
